In data set [1] the target is T1, glucagon receptor (Homo sapiens, UniProt P47871).
T1 construct: expressed in transfected cells
The data set can be described thus: Assay (I) Glucagon activity (cAMP biosensor, FLIPR). In kind it is cell-based.

The nature of data set [2]: Assay (X) Chemical stability assessment by RP-UPLC. As to conditions: pH 8.15, 14 days at 37° C. vs 5° C., 333 μM. In kind it is physicochemical.

For orientation: EC50 means the concentration that produces a half-maximal response.

SMILES strings stand for the structures. Numbered stars: 1 amine (or outer) side, 2 acyl side, 3 side chain; on linkers, the order of the positions; unused ones are H or OH. Side chains are listed from the residue outwards. Peptide text beside a SMILES is read from it. * marks the point of attachment. C18 diacid = O=C(O)CCCCCCCCCCCCCCCCC(=O)*; C16 diacid = O=C(O)CCCCCCCCCCCCCCC(=O)*; γGlu = O=C(O)[C@H](CCC(=O)[*:2])N[*:1]; AEEA = NCCOCCOCC(=O)O

T1 sequence (P47871 26-477): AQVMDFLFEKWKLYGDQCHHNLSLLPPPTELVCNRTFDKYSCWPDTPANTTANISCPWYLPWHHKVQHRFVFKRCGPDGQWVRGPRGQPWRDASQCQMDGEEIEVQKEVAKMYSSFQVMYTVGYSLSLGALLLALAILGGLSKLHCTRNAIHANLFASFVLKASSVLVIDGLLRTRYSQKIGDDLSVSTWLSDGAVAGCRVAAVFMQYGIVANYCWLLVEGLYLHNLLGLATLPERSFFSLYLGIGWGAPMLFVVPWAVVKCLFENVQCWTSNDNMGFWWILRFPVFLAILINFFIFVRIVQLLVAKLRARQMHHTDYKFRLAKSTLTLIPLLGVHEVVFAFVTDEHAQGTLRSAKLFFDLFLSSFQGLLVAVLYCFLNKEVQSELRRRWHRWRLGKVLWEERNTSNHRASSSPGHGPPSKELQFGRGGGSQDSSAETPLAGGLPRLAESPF

In turn, `CC(C)C[C@H](NC(=O)[C@H](CC(C)C)NC(=O)[C@H](Cc1c[nH]c2ccccc12)NC(=O)[C@H](CCCCNC(=O)CC[C@H](NC(=O)CC[C@H](NC(=O)COCCOCCNC(=O)COCCOCCNC(=O)CC[C@H](NC(=O)CCCCCCCCCCCCCCCCC(=O)O)C(=O)O)C(=O)O)C(=O)O)NC(=O)[C@@H](NC(=O)[C@H](Cc1ccccc1)NC(=O)[C@H](CC(=O)O)NC(=O)[C@H](CCC(N)=O)NC(=O)[C@H](C)NC(=O)[C@H](CCCNC(=N)N)NC(=O)[C@H](CCCNC(=N)N)NC(=O)[C@H](CC(C)C)NC(=O)[C@H](CC(=O)O)NC(=O)[C@H](CC(C)C)NC(=O)[C@H](Cc1ccc(O)cc1)NC(=O)[C@H](CCCNC(=N)N)NC(=O)[C@H](CO)NC(=O)[C@H](Cc1ccc(O)cc1)NC(=O)[C@H](CC(=O)O)NC(=O)[C@H](CO)NC(=O)[C@@H](NC(=O)[C@H](Cc1ccccc1)NC(=O)[C@@H](NC(=O)CNC(=O)[C@H](CCC(N)=O)NC(=O)[C@H](CO)NC(=O)[C@@H](N)Cc1c[nH]cn1)[C@@H](C)O)[C@@H](C)O)C(C)C)C(=O)N[C@@H](C)C(=O)N[C@H](C(=O)O)[C@@H](C)O` [Example 87, N^ε24-[(4S)-4-carboxy-4-[[(4S)-4-carboxy-4-[[2-[2-[2-[[2-[2-[2-[[(4S)-4-carboxy-4-(17-carboxyheptadecanoylamino)butanoyl]amino]ethoxy]ethoxy]acetyl]amino]ethoxy]ethoxy]acetyl]amino]butanoyl]amino]butanoyl]-[Arg12,Leu16,Lys24,Leu27,Ala28]-Glucagon] (H-HSQGTFTSDYSRYLDLRRAQDFVK([γGlu-γGlu-AEEA-AEEA-γGlu-C18 diacid])WLLAT-OH) came in with an EC50 in data set [1] of 0.253 nM. For the same compound, the “Chemical stability [Purity loss/14 days 37 C.]” value in data set [2] is on record as 5.8%.

Regarding `CC(C)C[C@H](NC(=O)[C@H](Cc1c[nH]c2ccccc12)NC(=O)[C@H](CCCCNC(=O)CC[C@H](NC(=O)CC[C@H](NC(=O)COCCOCCNC(=O)COCCOCCNC(=O)CC[C@H](NC(=O)CCCCCCCCCCCCCCCCC(=O)O)C(=O)O)C(=O)O)C(=O)O)NC(=O)[C@@H](NC(=O)[C@H](Cc1ccccc1)NC(=O)[C@H](CC(=O)O)NC(=O)[C@H](CCC(N)=O)NC(=O)[C@H](C)NC(=O)[C@H](CCCNC(=N)N)NC(=O)[C@H](CCCNC(=N)N)NC(=O)[C@@H](NC(=O)[C@H](CC(=O)O)NC(=O)[C@H](CC(C)C)NC(=O)[C@H](Cc1ccc(O)cc1)NC(=O)[C@H](CCCNC(=N)N)NC(=O)[C@H](CO)NC(=O)[C@H](Cc1ccc(O)cc1)NC(=O)[C@H](CC(=O)O)NC(=O)[C@H](CO)NC(=O)[C@@H](NC(=O)[C@H](Cc1ccccc1)NC(=O)[C@@H](NC(=O)CNC(=O)[C@H](CCC(N)=O)NC(=O)[C@H](CO)NC(=O)[C@@H](N)Cc1c[nH]cn1)[C@@H](C)O)[C@@H](C)O)[C@@H](C)O)C(C)C)C(=O)N[C@@H](CC(C)C)C(=O)N[C@@H](CC(N)=O)C(=O)N[C@H](C(=O)O)[C@@H](C)O` [Example 10, N^ε24-[(4S)-4-carboxy-4-[[(4S)-4-carboxy-4-[[2-[2-[2-[[2-[2-[2-[[(4S)-4-carboxy-4-(17-carboxyheptadecanoylamino)butanoyl]amino]ethoxy]ethoxy]acetyl]amino]ethoxy]ethoxy]acetyl]amino]butanoyl]amino]butanoyl]-[Arg^12,Thr^16,Lys^24,Leu^27]-Glucagon] (H-HSQGTFTSDYSRYLDTRRAQDFVK([γGlu-γGlu-AEEA-AEEA-γGlu-C18 diacid])WLLNT-OH), the EC50 in data set [1] was found to be 0.031 nM. In addition, the “Chemical stability [Purity loss/14 days 37 C.]” value in data set [2] was found to be 10.3%.

As to `CC(C)C[C@H](NC(=O)[C@H](Cc1c[nH]c2ccccc12)NC(=O)[C@H](CCCCNC(=O)CC[C@H](NC(=O)COCCOCCNC(=O)COCCOCCNC(=O)CC[C@H](NC(=O)CC[C@H](NC(=O)CCCCCCCCCCCCCCCCC(=O)O)C(=O)O)C(=O)O)C(=O)O)NC(=O)[C@@H](NC(=O)[C@H](Cc1ccccc1)NC(=O)[C@H](CCC(=O)O)NC(=O)[C@H](CCC(N)=O)NC(=O)[C@H](C)NC(=O)[C@H](CCCNC(=N)N)NC(=O)[C@H](CCCNC(=N)N)NC(=O)[C@@H](NC(=O)[C@H](CC(=O)O)NC(=O)[C@H](CC(C)C)NC(=O)[C@H](Cc1ccc(O)cc1)NC(=O)[C@H](CCCNC(=N)N)NC(=O)[C@H](CO)NC(=O)[C@@H](NC(=O)[C@H](CC(=O)O)NC(=O)[C@H](CO)NC(=O)[C@@H](NC(=O)[C@H](Cc1ccccc1)NC(=O)[C@@H](NC(=O)CNC(=O)[C@H](CCC(N)=O)NC(=O)[C@H](CO)NC(=O)[C@@H](N)Cc1c[nH]cn1)[C@@H](C)O)[C@@H](C)O)C(C)C)[C@@H](C)O)C(C)C)C(=O)N[C@@H](CC(C)C)C(=O)N[C@@H](CO)C(=O)N[C@H](C(=O)O)[C@@H](C)O` [Example 64, N^ε24-[(4S)-4-carboxy-4-[[2-[2-[2-[[2-[2-[2-[[(4S)-4-carboxy-4-[[(4S)-4-carboxy-4-(17-carboxyheptadecanoylamino)butanoyl]amino]butanoyl]amino]ethoxy]ethoxy]acetyl]amino]ethoxy]ethoxy]acetyl]amino]butanoyl]-[Val10,Arg12,Thr16,Glu21,Lys24,Leu27,Ser28]-Glucagon] (H-HSQGTFTSDVSRYLDTRRAQEFVK([γGlu-AEEA-AEEA-γGlu-γGlu-C18 diacid])WLLST-OH), a half-maximal effect in data set [1] (EC50) was put at 0.176 nM. Besides, the “Chemical stability [Purity loss/14 days 37 C.]” value in data set [2] is listed as 5.1%.

Regarding `CC(C)C[C@H](NC(=O)[C@H](Cc1c[nH]c2ccccc12)NC(=O)[C@H](CCCCNC(=O)CC[C@H](NC(=O)CC[C@H](NC(=O)COCCOCCNC(=O)COCCOCCNC(=O)CC[C@H](NC(=O)CCCCCCCCCCCCCCCCC(=O)O)C(=O)O)C(=O)O)C(=O)O)NC(=O)[C@@H](NC(=O)[C@H](Cc1ccccc1)NC(=O)[C@H](CC(=O)O)NC(=O)[C@H](CCC(N)=O)NC(=O)[C@H](C)NC(=O)[C@H](CCCNC(=N)N)NC(=O)[C@H](CCCNC(=N)N)NC(=O)[C@@H](NC(=O)[C@H](CC(=O)O)NC(=O)[C@H](CC(C)C)NC(=O)[C@H](Cc1ccc(O)cc1)NC(=O)[C@H](CCCNC(=N)N)NC(=O)[C@H](CO)NC(=O)[C@H](Cc1ccc(O)cc1)NC(=O)[C@H](CC(=O)O)NC(=O)[C@H](CO)NC(=O)[C@@H](NC(=O)[C@H](Cc1ccccc1)NC(=O)[C@@H](NC(=O)CNC(=O)[C@H](CCC(N)=O)NC(=O)[C@H](CO)NC(=O)[C@@H](N)Cc1c[nH]cn1)[C@@H](C)O)[C@@H](C)O)[C@@H](C)O)C(C)C)C(=O)N[C@@H](CCC(=O)O)C(=O)N[C@@H](CO)C(=O)N[C@H](C(=O)O)[C@@H](C)O` [Example 44, N^ε24-[(4S)-4-carboxy-4-[[(4S)-4-carboxy-4-[[2-[2-[2-[[2-[2-[2-[[(4S)-4-carboxy-4-(17-carboxyheptadecanoylamino)butanoyl]amino]ethoxy]ethoxy]acetyl]amino]ethoxy]ethoxy]acetyl]amino]butanoyl]amino]butanoyl]-[Arg12,Thr16,Lys24,Glu27,Ser28]-Glucagon] (H-HSQGTFTSDYSRYLDTRRAQDFVK([γGlu-γGlu-AEEA-AEEA-γGlu-C18 diacid])WLEST-OH), in data set [1], the midpoint of the response, the EC50, lay at 0.176 nM. The “Chemical stability [Purity loss/14 days 37 C.]” value in data set [2] stood at 10.5%.

In data set [1], `CC(C)C[C@H](NC(=O)[C@H](Cc1ccc(O)cc1)NC(=O)[C@H](CCCNC(=N)N)NC(=O)[C@H](CO)NC(=O)[C@H](Cc1ccc(O)cc1)NC(=O)[C@H](CC(=O)O)NC(=O)[C@H](CO)NC(=O)[C@@H](NC(=O)[C@H](Cc1ccccc1)NC(=O)[C@@H](NC(=O)CNC(=O)[C@H](CCC(N)=O)NC(=O)[C@H](CO)NC(=O)[C@@H](N)Cc1c[nH]cn1)[C@@H](C)O)[C@@H](C)O)C(=O)N[C@@H](CC(=O)O)C(=O)N[C@@H](C)C(=O)N[C@@H](CCCNC(=N)N)C(=O)N[C@@H](CCCNC(=N)N)C(=O)N[C@@H](C)C(=O)N[C@@H](CCC(N)=O)C(=O)N[C@@H](CC(=O)O)C(=O)N[C@@H](Cc1ccccc1)C(=O)N[C@H](C(=O)N[C@@H](CCCCNC(=O)CC[C@H](NC(=O)CC[C@H](NC(=O)CC[C@H](NC(=O)CCCCCCCCCCCCCCCCC(=O)O)C(=O)O)C(=O)O)C(=O)O)C(=O)N[C@@H](Cc1c[nH]c2ccccc12)C(=O)N[C@@H](CC(C)C)C(=O)N[C@@H](CC(C)C)C(=O)N[C@@H](CO)C(=O)N[C@H](C(=O)O)[C@@H](C)O)C(C)C` [Example 92, N^ε24-[(4S)-4-carboxy-4-[[(4S)-4-carboxy-4-[[(4S)-4-carboxy-4-(17-carboxyheptadecanoylamino)butanoyl]amino]butanoyl]amino]butanoyl]-[Arg12,Ala16,Lys24,Leu27,Ser28]-Glucagon] (H-HSQGTFTSDYSRYLDARRAQDFVK([γGlu-γGlu-γGlu-C18 diacid])WLLST-OH) gave an EC50 of 0.066 nM. Further, the “Chemical stability [Purity loss/14 days 37 C.]” value in data set [2] turned out to be 6.5%.

In data set [1], `CC(C)C[C@H](NC(=O)[C@H](Cc1c[nH]c2ccccc12)NC(=O)[C@H](CCCCNC(=O)CC[C@H](NC(=O)CC[C@H](NC(=O)COCCOCCNC(=O)COCCOCCNC(=O)CC[C@H](NC(=O)CCCCCCCCCCCCCCC(=O)O)C(=O)O)C(=O)O)C(=O)O)NC(=O)[C@@H](NC(=O)[C@H](Cc1ccccc1)NC(=O)[C@H](CC(=O)O)NC(=O)[C@H](CCC(N)=O)NC(=O)[C@H](C)NC(=O)[C@H](CCCNC(=N)N)NC(=O)[C@H](CCCNC(=N)N)NC(=O)[C@@H](NC(=O)[C@H](CC(=O)O)NC(=O)[C@H](CC(C)C)NC(=O)[C@H](Cc1ccc(O)cc1)NC(=O)[C@H](CCCCN)NC(=O)[C@H](CO)NC(=O)[C@H](Cc1ccc(O)cc1)NC(=O)[C@H](CC(=O)O)NC(=O)[C@H](CO)NC(=O)[C@@H](NC(=O)[C@H](Cc1ccccc1)NC(=O)[C@@H](NC(=O)CNC(=O)[C@H](CCC(N)=O)NC(=O)[C@H](CO)NC(=O)[C@@H](N)Cc1c[nH]cn1)[C@@H](C)O)[C@@H](C)O)C(C)C)C(C)C)C(=O)N[C@@H](CC(C)C)C(=O)N[C@@H](CO)C(=O)N[C@H](C(=O)O)[C@@H](C)O` [Example 95, N^ε24-[(4S)-4-carboxy-4-[[(4S)-4-carboxy-4-[[2-[2-[2-[[2-[2-[2-[[(4S)-4-carboxy-4-(15-carboxypentadecanoylamino)butanoyl]amino]ethoxy]ethoxy]acetyl]amino]ethoxy]ethoxy]acetyl]amino]butanoyl]amino]butanoyl]-[Val16,Lys24,Leu27,Ser28]-Glucagon] (H-HSQGTFTSDYSKYLDVRRAQDFVK([γGlu-γGlu-AEEA-AEEA-γGlu-C16 diacid])WLLST-OH; N-terminus and C-terminus assumed) returned an EC50 of 0.009 nM. Further, the “Chemical stability [Purity loss/14 days 37 C.]” value in data set [2] is given as 5.1%.

Values taken from patent publication US9486506B2 (Novo Nordisk A/S, priority 2011, dated 2016).
